Values quoted from earlier work, collected in publication PMC8201747, “Cell Permeability of Isomeric Macrocycles: Predictions and NMR Studies” (ACS Medicinal Chemistry Letters, 2021).

Test system: Caco-2 cell monolayer
Conditions: Table S17, reported previously, ref 13 (SI); for ER (efflux ratio): Caco-2

| ER (efflux ratio) | Permeability (passive permeability across a Caco-2 cell monolayer, Papp AB+inhibitor cocktail) | SMILES |
| --- | --- | --- |
| 1.40 | 1.89 ×10⁻⁶ cm/s | CO[C@H]1CN(C)C(=O)c2cc(C#N)ccc2OC[C@@H]2O[C@H](CC[C@H]2OC)CCN(C)C(=O)[C@@H]1C [Macrocycle 5] |
| 0.78 | 6.36 ×10⁻⁶ cm/s | CO[C@H]1CN(C)C(=O)c2cccc(C#N)c2OC[C@@H]2O[C@H](CC[C@H]2OC)CCN(C)C(=O)[C@@H]1C [Macrocycle 7] |
| 0.81 | 23.08 ×10⁻⁶ cm/s | CO[C@@H]1CC[C@@H]2CCN(C)C(=O)[C@H](C)[C@H](OC)CN(C)C(=O)c3cccc(C#N)c3OC[C@@H]1O2 [Macrocycle 6] |
